Measured values reported in the supplement of paper PMC10627819.

Tests used:
[1] = test system: S. pneumoniae D39V; assay: Bliss interaction score (quartile over a dose matrix) (fitness difference); higher = more antagonism (negative = synergy)
Procedure, shortened: (§1)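 The Bliss score subtracts expected fitness, the product of the single-drug fitness values, from observed fitness. Fitness is plate-normalised OD595 at entry into stationary phase, relative to the robust no-drug mean and capped at 1, with single-drug fitness inferred from combinations. Summaries are quartiles over technical, biological and donor/recipient replicates.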

[2] = test system: S. aureus Newman; assay: as above
Procedure, shortened: as §1

[3] = test system: B. subtilis 168; assay: as above
Procedure, shortened: as §1

[4] = test system: S. aureus DSM 20231; assay: as above
Procedure, shortened: as §1

[5] = test system: S. pneumoniae D39V; assay: fitness (endpoint OD595 vs no drug) (fraction); higher = more growth
Procedure, shortened: (§2)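 With the first reading as background, OD595 was measured every 30 min for 14 h in 384-well plates kept at 37 °C and inoculated at OD595 0.01. TSB, LB Lennox or CY was the medium. Fitness is the optical density at the transition into stationary phase divided by the robust mean of no-drug control wells, with a cap of 1.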

[6] = test system: B. subtilis 168; assay: as above
Procedure, shortened: as §2

[7] = test system: S. aureus DSM 20231; assay: as above
Procedure, shortened: as §2

[8] = test system: S. aureus Newman; assay: as above; settings: main component drawn
Procedure, shortened: as §2
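Wherever Bliss interaction score (quartile over a dose matrix) is given: first quartile when negative (synergy) and third quartile when positive (antagonism).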

CO/N=C(\C(=O)N[C@@H]1C(=O)N2C(C(=O)O)=C(COC(C)=O)CS[C@H]12)c1csc(N)n1 [Cefotaxime] + CC(=O)NC[C@H]1CN(c2ccc(N3CCOCC3)c(F)c2)C(=O)O1 [Linezolid]
Settings | Bliss interaction score
[1] | 0.157
[2] | -0.0569
[3] | 0.0544
[4] | 0.0531

Settings | fitness
[5], first compound 0.0018 µg/mL, partner 0.105 µg/mL | 0.913
[5], first compound 0.0018 µg/mL, partner 0.2 µg/mL | 0.642
[5], first compound 0.0018 µg/mL, partner 0.21 µg/mL | 0.807
[5], first compound 0.0018 µg/mL, partner 0.4 µg/mL | 0.633
[5], first compound 0.0018 µg/mL, partner 0.42 µg/mL | 0.643
[5], first compound 0.0018 µg/mL, partner 0.8 µg/mL | 0.238
[5], first compound 0.0035 µg/mL, partner 0.105 µg/mL | 0.905
[5], first compound 0.0035 µg/mL, partner 0.2 µg/mL | 0.604
[5], first compound 0.0035 µg/mL, partner 0.21 µg/mL | 0.808
[5], first compound 0.0035 µg/mL, partner 0.4 µg/mL | 0.615
[5], first compound 0.0035 µg/mL, partner 0.42 µg/mL | 0.666
[5], first compound 0.0035 µg/mL, partner 0.8 µg/mL | 0.217
[5], first compound 0.007 µg/mL, partner 0.105 µg/mL | 0.797
[5], first compound 0.007 µg/mL, partner 0.2 µg/mL | 0.597
[5], first compound 0.007 µg/mL, partner 0.21 µg/mL | 0.693
[5], first compound 0.007 µg/mL, partner 0.4 µg/mL | 0.58
[5], first compound 0.007 µg/mL, partner 0.42 µg/mL | 0.445
[5], first compound 0.007 µg/mL, partner 0.8 µg/mL | 0.173
[6], first compound 0.5 µg/mL, partner 0.125 µg/mL | 0.298
[6], first compound 0.5 µg/mL, partner 0.25 µg/mL | 0.0555
[6], first compound 0.5 µg/mL, partner 0.5 µg/mL | 0.0506
[6], first compound 1 µg/mL, partner 0.125 µg/mL | 0.218
[6], first compound 1 µg/mL, partner 0.25 µg/mL | 0.0513
[6], first compound 1 µg/mL, partner 0.5 µg/mL | 0.0306
[6], first compound 2 µg/mL, partner 0.125 µg/mL | 0.114
[6], first compound 2 µg/mL, partner 0.25 µg/mL | 0.0572
[6], first compound 2 µg/mL, partner 0.5 µg/mL | 0.0482
[7], first compound 0.039 µg/mL, partner 0.125 µg/mL | 0.737
[7], first compound 0.039 µg/mL, partner 0.25 µg/mL | 0.537
[7], first compound 0.039 µg/mL, partner 0.5 µg/mL | 0.194
[7], first compound 0.078 µg/mL, partner 0.125 µg/mL | 0.689
[7], first compound 0.078 µg/mL, partner 0.25 µg/mL | 0.57
[7], first compound 0.078 µg/mL, partner 0.5 µg/mL | 0.277
[7], first compound 0.156 µg/mL, partner 0.125 µg/mL | 0.745
[7], first compound 0.156 µg/mL, partner 0.25 µg/mL | 0.584
[7], first compound 0.156 µg/mL, partner 0.5 µg/mL | 0.297

one replicate
Settings | fitness
[6], first compound 0.00775 µg/mL, partner 0.125 µg/mL | 0.688
[6], first compound 0.00775 µg/mL, partner 0.25 µg/mL | 0.141
[6], first compound 0.00775 µg/mL, partner 0.5 µg/mL | 0.0663
[6], first compound 0.0155 µg/mL, partner 0.125 µg/mL | 0.495
[6], first compound 0.0155 µg/mL, partner 0.25 µg/mL | 0.0491
[6], first compound 0.0155 µg/mL, partner 0.5 µg/mL | 0.0426
[6], first compound 0.031 µg/mL, partner 0.125 µg/mL | 0.462
[6], first compound 0.031 µg/mL, partner 0.25 µg/mL | 0.0621
[6], first compound 0.031 µg/mL, partner 0.5 µg/mL | 0.0534
[6], first compound 0.0625 µg/mL, partner 0.0625 µg/mL | 0.553
[6], first compound 0.0625 µg/mL, partner 0.125 µg/mL | 0.327
[6], first compound 0.0625 µg/mL, partner 0.25 µg/mL | 0.0561
[6], first compound 0.125 µg/mL, partner 0.0625 µg/mL | 0.413
[6], first compound 0.125 µg/mL, partner 0.125 µg/mL | 0.216
[6], first compound 0.125 µg/mL, partner 0.25 µg/mL | 0.0505
[6], first compound 0.25 µg/mL, partner 0.0625 µg/mL | 0.308
[6], first compound 0.25 µg/mL, partner 0.125 µg/mL | 0.189
[6], first compound 0.25 µg/mL, partner 0.25 µg/mL | 0.0533
[7], first compound 0.039 µg/mL, partner 1 µg/mL | 0.0567
[7], first compound 0.078 µg/mL, partner 1 µg/mL | 0.0664
[7], first compound 0.156 µg/mL, partner 1 µg/mL | 0.0626
[7], first compound 0.312 µg/mL, partner 0.125 µg/mL | 0.658
[7], first compound 0.312 µg/mL, partner 0.25 µg/mL | 0.545
[7], first compound 0.312 µg/mL, partner 0.5 µg/mL | 0.342

CO/N=C(\C(=O)N[C@@H]1C(=O)N2C(C(=O)O)=C(COC(C)=O)CS[C@H]12)c1csc(N)n1 [Cefotaxime] + CCCCCCCCCC(=O)N[C@@H]1[C@H]([C@@H]([C@H](O[C@H]1OC2=C3C=C4C=C2OC5=C(C=C(C=C5)[C@H]([C@H]6C(=O)N[C@@H](C7=C(C(=CC(=C7)O)OC8[C@H]([C@H]([C@@H]([C@H](O8)CO)O)O)O)C9=C(C=CC(=C9)[C@H](C(=O)N6)NC(=O)[C@@H]4NC(=O)[C@@H]1C2=CC(=CC(=C2)OC2=C(C=CC(=C2)[C@H](C(=O)N[C@H](CC2=CC(=C(O3)C=C2)Cl)C(=O)N1)N)O)O)O)C(=O)O)O[C@H]1[C@@H]([C@H]([C@@H]([C@H](O1)CO)O)O)NC(=O)C)Cl)CO)O)O [Teicoplanin]
main component drawn
Settings | Bliss interaction score
[1] | -0.0543
[2] | -0.0611
[3] | -0.0867
[4] | -0.0684

fitness
Settings | partner 0.1562 µg/mL | partner 0.3125 µg/mL | partner 0.62 µg/mL | partner 0.625 µg/mL | partner 1.24 µg/mL | partner 2.48 µg/mL
[7], first compound 0.078 µg/mL, main component drawn | 0.791 | 0.828 | – | 0.826 | – | –
[7], first compound 0.156 µg/mL, main component drawn | 0.705 | 0.775 | – | 0.716 | – | –
[7], first compound 0.312 µg/mL, main component drawn | 0.667 | 0.665 | – | 0.663 | – | –
[8], first compound 0.039 µg/mL, one replicate | – | – | 0.563 | – | 0.614 | 0.405
[8], first compound 0.078 µg/mL, one replicate | – | – | 0.592 | – | 0.531 | 0.203
[8], first compound 0.156 µg/mL, one replicate | – | – | 0.459 | – | 0.487 | 0.094
[8], first compound 0.312 µg/mL, one replicate | – | – | 0.453 | – | 0.436 | 0.0757
[8], first compound 0.625 µg/mL, one replicate | 0.0055 | 0.0074 | – | 0.152 | – | –
[8], first compound 1.25 µg/mL, one replicate | 0.0152 | 0.0026 | – | 0.0074 | – | –
[8], first compound 2.5 µg/mL, one replicate | 0.0359 | 0.0126 | – | 0.0149 | – | –

fitness, [8]
Settings | first compound 0.078 µg/mL | first compound 0.156 µg/mL | first compound 0.312 µg/mL
partner 0.1562 µg/mL | 0.684 | 0.52 | 0.343
partner 0.3125 µg/mL | 0.672 | 0.498 | 0.356
partner 0.625 µg/mL | 0.574 | 0.46 | 0.315

[7], first compound 0.039 µg/mL, one replicate, main component drawn
Settings | fitness
partner 0.1562 µg/mL | 0.672
partner 0.3125 µg/mL | 0.754
partner 0.625 µg/mL | 0.786

CO/N=C(\C(=O)N[C@@H]1C(=O)N2C(C(=O)O)=C(COC(C)=O)CS[C@H]12)c1csc(N)n1 [Cefotaxime] + CCC[C@@H]1C[C@@H](C(=O)N[C@@H]([C@H]2O[C@H](SC)[C@H](O)[C@@H](O)[C@H]2O)[C@@H](C)O)N(C)C1 [Lincomycin]
Settings | Bliss interaction score
[1] | 0.105
[2] | -0.173
[3] | 0.0413
[4] | 0.0625

fitness
Settings | partner 0.1 µg/mL | partner 0.2 µg/mL | partner 0.215 µg/mL | partner 0.4 µg/mL | partner 0.43 µg/mL | partner 0.8 µg/mL | partner 0.86 µg/mL
[5], first compound 0.0018 µg/mL | – | 0.667 | 0.903 | 0.469 | 0.759 | 0.185 | 0.56
[5], first compound 0.0035 µg/mL | – | 0.626 | 0.866 | 0.455 | 0.748 | 0.142 | 0.489
[5], first compound 0.007 µg/mL | – | 0.566 | 0.868 | 0.388 | 0.791 | 0.0851 | 0.469
[6], first compound 0.5 µg/mL | 0.257 | 0.241 | – | 0.201 | – | – | –
[6], first compound 1 µg/mL | 0.144 | 0.126 | – | 0.0991 | – | – | –
[6], first compound 2 µg/mL | 0.0702 | 0.0617 | – | 0.0675 | – | – | –
[7], first compound 0.039 µg/mL | 0.748 | 0.799 | – | – | – | – | –
[7], first compound 0.078 µg/mL | 0.721 | 0.728 | – | – | – | – | –
[7], first compound 0.156 µg/mL | 0.628 | 0.659 | – | 0.353 | – | – | –
[7], first compound 0.312 µg/mL | 0.582 | 0.569 | – | 0.188 | – | – | –

fitness, [6], one replicate
Settings | first compound 0.00775 µg/mL | first compound 0.0155 µg/mL | first compound 0.031 µg/mL | first compound 0.0625 µg/mL | first compound 0.125 µg/mL | first compound 0.25 µg/mL
partner 0.1 µg/mL | – | – | – | 0.506 | 0.44 | 0.334
partner 0.2 µg/mL | – | – | – | 0.548 | 0.452 | 0.371
partner 0.4 µg/mL | 0.767 | 0.667 | 0.452 | 0.475 | 0.444 | 0.319
partner 0.8 µg/mL | 0.744 | 0.619 | 0.415 | – | – | –
partner 1.6 µg/mL | 0.683 | 0.575 | 0.388 | – | – | –
